Columns and labels:
[1] = test system: tumors formed in mice implanted with TM4SF5-expressing cells (SNU449Tp); assay: Tumors in nude mice implanted with TM4SF5-expressing cells, intraperitoneal TSAHC; format: in vivo
Protocol: Next, various SNU449 cell lines, expressing or not expressing TM4SF5, were injected into nude mice. 4-5 week-old female nude BALB/cAnNCrjBgi-nu mice (Orient. Co. Ltd), weighing about 20 g, were used. Animals were housed in sterilized cages, and given free access to sterilized water and feed. All procedures were carried out in the clean bench in which laminar flow was continuously maintained to provide a clean environment.
Nude mice were maintained under a light cycle of 12-hr light and 12-hr dark using indoor lamps, for biological cycle of day and night. Suspensions of SNU449 Cp, SNU449Tp, SNU449T16 and SNU449T16m cells were centrifuged, and the concentrated cells were counted using a hemocytometer to adjust them to a density of 1×10^7 cells/200 The prepared cells were subcutaneously injected into the flank of nude mice using a 1-ml syringe having a 26-gauge needle. Experimental animals were maintained according to the preclinical method for breeding of laboratory animals, Seoul National University, and were monitored for tumor formation by SNU449Tp cells.
The length and width of tumors formed in nude mice, prepared in Example 6, were measured one every two days using calipers. Tumor volume was calculated according to the following Equation: Volume (mm^3)=Length×Width2×½, Length: long diameter, Width: short diameter). […]

cytosolic p27^kip1 = assay: Immunofluorescent staining for p27^kip1 (FIG. 47); format: cell-based, human; settings: 449Tp cells
Protocol: (§1) When cells were transfected with given specific genes or infected with various viruses, they were used after being cultured for a given period of time. Cells treated with 10 mM lysophosphatidic acid (LPA) were used 1 hour after being attached to cover glasses. Immunofluorescent staining was carried out by preparing a slide for fluorescent analysis through incubation with a primary antibody against a target protein, washing out unbound antibody molecules, incubation with a fluorescein-conjugated secondary antibody and washing out unbound antibody molecules, and actin filament staininh was carried out with rhodamine-conjugated phalloidin. Antibodies used included antibodies against E-cadherin, β-catenin, FLAG, 4′-6-diamidino-2-phenylindole (DAPI), 5-brorno-2′-deoxy-uridine (BrdU), p27^kip1, ZO1 (zonula occludens-1), and the like. Immunofluorescent stained cover glasses were placed on slides and observed under a fluorescence microscope or a confocal laser scanning microscope.

TM4SF5-expressing cells = assay: Immunostaining for DNA and the actin cytoskeleton, cell shape (FIG. 49); format: cell-based, human
Protocol: as §1

TM4SF5 = target: T1, TM4SF5 (Homo sapiens, UniProt O14894); assay: Western blotting of lysates treated with PNGase F and Endo H (FIG. 50); format: cell-based
T1 construct: expressed in transfected cells; host or cells: SNU449 hepatocarcinoma cells stably expressing TM4SF5 (the embodiment)
T1 sequence (O14894 1-197): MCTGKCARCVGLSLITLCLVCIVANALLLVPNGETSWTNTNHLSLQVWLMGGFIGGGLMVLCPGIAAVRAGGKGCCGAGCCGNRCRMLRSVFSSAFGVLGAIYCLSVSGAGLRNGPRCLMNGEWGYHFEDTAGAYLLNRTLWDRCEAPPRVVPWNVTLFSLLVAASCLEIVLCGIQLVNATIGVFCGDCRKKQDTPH

[2] = test system: cells endogenously expressing TM4SF5; assay: Growth/proliferation of cells endogenously expressing TM4SF5 (FIG. 51); format: cell-based
[3] = test system: cells not expressing TM4SF5; assay: Growth/proliferation of cells not expressing TM4SF5 (FIG. 51); format: cell-based
SNU449Tp cells [4] = assay: Invasion into collagen gel, microcarrier beads (FIG. 66); format: cell-based, human; settings: 20 μM, 18 hrs
Protocol: Cell invasiveness was analyzed using Cytodex-3 microcarriers. SNU449 Cp and SNU449Tp cells were grown on microcarrier beads in an attached state, and cultured in a collagen gel matrix, including a serum-containing medium at 37° C.
SNU449 Cp cells and SNU449Tp cells were allowed to attach to microcarrier beads, and cultured in the presence of 20 μM of TSAHC for 18 hrs. Bead-cells were cultured in a collagen gel matrix, including a serum-containing medium, and observed for invasion into the collagen gel at given time points.

SNU449Tp cells [5] = assay: Invasion into Matrigel, Transwell chamber (FIG. 67); format: cell-based, human; settings: cultured for 24 hrs
Protocol: The invasiveness of SNU449Tp cells was also analyzed using Boyden Transwell chamber 24 well plates, as mentioned in Example 7-(1). Matrigel was added to the insert of the plates, and was allowed to solidify at 37° C. Cells were cultured as described above. After 24 hrs, cells on the upper surface of the membrane of the insert chamber were completely removed by wiping with a cotton swab. As a result, after […], cells that had invaded the lower side of the membrane were stained.
According to the same method described above, cells were seeded in the Transwell chamber, coated with a thick layer of Matrigel, and cultured for 24 hrs. Cells that invaded the Matrigel were counted, and the results are shown as a graph.

MMP-2 and MMP-9 = assay: Gelatin zymography of culture supernatants (FIG. 68); format: cell-based, human; settings: 20 μM, 24 hrs
Protocol: The substrate degradation activity of secreted MMPs was investigated using gelatin zymography. Cell lines, indicated in FIG. 62, were cultured in 60-mm culture dishes. After 18 hrs, the medium was exchanged with serum-free medium, and cells were cultured for a further 24 hrs. Culture supernatants were collected to obtain secreted MMPs, and were then concentrated. Samples were electrophoresed on the running SDS-PAGE gel containing gelatin as a substrate for MMPs under reducing conditions. The gel was washed in 1% Triton X-100 to remove SDS, thus renaturing the enzymes. The gel was then incubated in enzyme reaction buffer (10 mM CaCl2, 0.15 M NaCl, 50 mM Tris-HCl, pH 7.5) at 37° C. for 18 hrs. The gel was stained with 0.5% Coomassie Brilliant Blue R250 for 3 hrs, and destained until clear bands appeared in 10% acetic acid and 30% methanol.
In addition, Cp cells and Tp cells were treated with 20 μM of TSAHC for 24 hrs. The medium was exchanged with serum-free medium, and cells were cultured for a further 18 hrs. Culture supernatants were collected, concentrated, and analyzed using zymography, as described above.

Structure (SMILES): Cc1ccc(S(=O)(=O)Nc2ccc(C(=O)/C=C/c3ccc(O)cc3)cc2)cc1 [Compound 1, 4′-(p-toluenesulfonylamino)-4-hydroxychalcone]
- tumor size decreased by ([1]; 5 mg/kg intraperitoneally once every two days for three weeks): 45%
- tumor size decreased by ([1]; 50 mg/kg intraperitoneally once every two days for three weeks): 88%
- cytosolic p27^kip1 levels (cytosolic p27^kip1): decrease in cytosolic p27^kip1 levels
- cell shape (TM4SF5-expressing cells): returned the elongated cell shape to the same polygonal shape as that of TM4SF5-null control cells
- sensitivity of N-linked glycosylated region of TM4SF5 to PNGase F (TM4SF5): increase the sensitivity of an N-linked glycosylated region of TM4SF5 to PNGase F
- growth or proliferation of cells endogenously expressing TM4SF5 [2]: inhibited the growth or proliferation of cells endogenously expressing TM4SF5
- growth or proliferation of cells not expressing TM4SF5 [3]: did not affect cells not expressing TM4SF5
- TM4SF5-mediated cell invasion into collagen gel (SNU449Tp cells [4]): inhibit TM4SF5-mediated cell invasion into collagen gel
- invasion into Matrigel (SNU449Tp cells [5]): effectively inhibit invasion into Matrigel
- TM4SF5-mediated activity of MMPs (MMP-2 and MMP-9): inhibit the TM4SF5-mediated activity of MMPs

Reference: patent US9072698B2, “Method for screening anti-cancer compounds inhibiting function of TM4SF5 and anti-cancer composition containing chalcone compounds” (Seoul National University Industry Foundation, priority 2006, dated 2015)
